We go through 23 compounds from patent US11180487B2, “Substituted cyanoindoline derivatives as NIK inhibitors” (Janssen Pharmaceutica NV, priority 2016, dated 2021).

For data set [1], the target named is recombinant human NF-kappaB-inducing kinase (NIK/MAP3K14) (Homo sapiens, UniProt Q99558). In words: Inhibition of auto-phosphorylation of recombinant human NIK/MAP3K14 activity (AlphaScreen), Biological Assay A. It counts as biochemical. To be noted: averaged values over all measurements on all batches. The essentials:
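AlphaScreen detection with anti-phospho-IKK Ser176/180 antibody plus Protein A acceptor/glutathione donor beads after 1 h, 25 °C reaction of 0.2 nM GST-tagged kinase, 25 μM ATP and compound. Buffer: 50 mM Tris pH 7.5, MgCl2, EGTA, DTT, vanadate; 1% DMSO. IC50 fitted sigmoidally to % inhibition.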

For data set [2], the system named is P-IKKα levels in L363 (NIK translocated multiple myeloma) cells. In words: Effect of compounds on P-IKKα levels in L363 cells (Mesoscale sandwich immuno-assay), Biological Assay B. The class given is cell-based, human. Conditions: 2 hr treatment, averaged values, read-out: Inhibition of pIKKα_L-363 (IC50 (nM)). A digest of the protocol: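 P-IKKα in lysates quantified by Mesoscale sandwich immunoassay after 2 h compound exposure in 1% DMSO, duplicate wells, 8-point 1:3 series. Human L363 cells had been preincubated 24 h with BAFF (1 μg/ml stock). Blank (10 μM ADS125117) subtracted; IC50 fitted sigmoidally to % inhibition of control.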

Data set [3] has as its system JJN-3 (NIK translocated) multiple myeloma cells. In words: Antiproliferative activity on JJN-3 multiple myeloma cells (CellTiter-Glo, 96 hr), Biological Assay C. The class given is cell-based, human. Conditions: JJN-3 (NIK translocated) cells, averaged values, read-out: JJN-3 Proliferation inhibition (IC50 (nM)). A digest of the protocol: (§1)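 Growth read-out was CellTiter-Glo luminescence after 96 h compound exposure, given as percent of no-drug control after subtracting a blank of cells read at dosing. Compounds ran as 9-point serial 1:3 dilutions in 0.3% DMSO, duplicate wells, on JJN-3 (15000/well) or KMS12-BM (20000/well) cells in RPMI 1640/10% FCS.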
For orientation: ATP-based viability assays read luminescence as a measure of living cells.

Data set [4] deals with KMS12-BM (NIK WT) multiple myeloma cells. In words: Antiproliferative activity on KMS12-BM multiple myeloma cells (CellTiter-Glo, 96 hr), Biological Assay C. The class given is cell-based, human. Conditions: averaged values, read-out: KMS-12 Proliferation inhibition (IC50 (nM)). A digest of the protocol:
as §1

As usually defined, the melting point is the temperature, or range, at which the solid turns liquid.

Where two headings read alike, the source gives them in different places.

Chain of recombinant human NF-kappaB-inducing kinase (NIK/MAP3K14) (Q99558 whole entry): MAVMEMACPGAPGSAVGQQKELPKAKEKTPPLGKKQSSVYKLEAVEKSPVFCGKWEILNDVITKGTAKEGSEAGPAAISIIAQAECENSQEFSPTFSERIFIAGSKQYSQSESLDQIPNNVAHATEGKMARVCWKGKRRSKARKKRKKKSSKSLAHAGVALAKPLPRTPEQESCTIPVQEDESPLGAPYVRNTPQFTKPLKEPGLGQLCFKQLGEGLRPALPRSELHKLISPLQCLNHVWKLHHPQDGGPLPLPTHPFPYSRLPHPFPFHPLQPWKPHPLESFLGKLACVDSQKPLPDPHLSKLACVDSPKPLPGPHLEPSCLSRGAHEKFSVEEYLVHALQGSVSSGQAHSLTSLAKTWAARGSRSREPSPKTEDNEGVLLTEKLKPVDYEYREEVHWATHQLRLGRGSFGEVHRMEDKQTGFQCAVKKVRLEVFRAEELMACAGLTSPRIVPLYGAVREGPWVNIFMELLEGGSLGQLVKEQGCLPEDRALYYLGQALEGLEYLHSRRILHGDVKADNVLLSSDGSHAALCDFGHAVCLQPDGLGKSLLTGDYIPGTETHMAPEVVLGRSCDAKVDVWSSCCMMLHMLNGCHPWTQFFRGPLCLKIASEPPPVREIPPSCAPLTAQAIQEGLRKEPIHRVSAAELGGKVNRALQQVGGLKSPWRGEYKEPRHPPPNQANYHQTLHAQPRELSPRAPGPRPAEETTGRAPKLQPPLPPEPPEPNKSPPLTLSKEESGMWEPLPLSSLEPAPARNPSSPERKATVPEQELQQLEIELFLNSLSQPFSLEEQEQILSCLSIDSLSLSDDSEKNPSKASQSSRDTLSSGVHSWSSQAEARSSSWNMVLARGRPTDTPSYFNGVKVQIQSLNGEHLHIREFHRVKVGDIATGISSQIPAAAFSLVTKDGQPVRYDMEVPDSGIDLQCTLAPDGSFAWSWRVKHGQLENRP

Compound `Cc1ccc(C(=O)NC2CCN(C)C2)cc1Nc1nccc(-c2cc(C#N)c3c(c2)[C@@](C)(CO)CN3)n1` (mixture of isomers) [Compound 163] displayed a melting point of 150 °C. Moreover, the IC50 in data set [1] stood at 3.5 nM. For the same compound, the IC50 in data set [2] (Homo sapiens, L-363, 2 h) is 33.1 nM. In addition, in data set [3] (Homo sapiens, JJN-3, 96 h), the IC50 came out at 437 nM. Further, the IC50 in data set [4] (Homo sapiens, KMS-12-BM, 96 h) is over 10000 nM.
Consider `Cc1cc(F)c(C(=O)NC2CCN(C)C2)cc1Nc1nccc(-c2cc(C#N)c3c(c2)[C@@](C)(CO)CN3)n1` (single isomer, unassigned) [Compound 166], for which the melting point worked out at 116 °C. Also, the IC50 in data set [1] stood at 8.9 nM. In addition, in data set [2] (Homo sapiens, L-363, 2 h), the IC50 was 18.6 nM. For the same compound, the IC50 in data set [3] (Homo sapiens, JJN-3, 96 h) was determined as 955 nM. The IC50 in data set [4] (Homo sapiens, KMS-12-BM, 96 h) is over 10000 nM.
Regarding `Cc1cc(F)c(C(=O)NC2CCN(C)C2)cc1Nc1nccc(-c2cc(C#N)c3c(c2)[C@@](C)(CO)CN3)n1` (single isomer, unassigned) [Compound 167], the melting point is 239 °C. In data set [1], the IC50 stood at 7.6 nM. Moreover, the IC50 in data set [2] was 19.1 nM. In addition, the IC50 in data set [3] was 562 nM. Moreover, the IC50 in data set [4] turned out to be 6170 nM.
Consider `Cc1cc(F)c(C(=O)NC2CCOC2)cc1Nc1nccc(-c2cc(C#N)c3c(c2)[C@@](C)(CO)CN3)n1` (single isomer, unassigned) [Compound 168], for which the melting point is 246 °C. Moreover, in data set [1], the IC50 turned out to be 10.7 nM. In data set [2] (Homo sapiens, L-363, 2 h), the IC50 came to 14.5 nM. Further, the IC50 in data set [3] (Homo sapiens, JJN-3, 96 h) was about 1410 nM. In addition, the IC50 in data set [4] (Homo sapiens, KMS-12-BM, 96 h) was over 10000 nM.
With `Cc1cc(F)c(C(=O)NC2CCOC2)cc1Nc1nccc(-c2cc(C#N)c3c(c2)[C@@](C)(CO)CN3)n1` (single isomer, unassigned) [Compound 169], the melting point amounted to 256 °C. In data set [1], the IC50 is 8.7 nM. In addition, the IC50 in data set [2] was found to be 8.3 nM. Moreover, in data set [3], the IC50 is about 1000 nM. The IC50 in data set [4] was over 10000 nM.
With `Cc1cc(C2CCCN(C)C2)c(C#N)cc1Nc1nccc(-c2cc(C#N)c3c(c2)[C@@](C)(CO)CN3)n1` (single isomer, unassigned) [Compound 178], the melting point stood at 230 °C. Besides, the IC50 in data set [1] came out at 2 nM. Further, the IC50 in data set [2] (Homo sapiens, L-363, 2 h) is 2.6 nM. The IC50 in data set [3] (Homo sapiens, JJN-3, 96 h) is 42 nM. The IC50 in data set [4] (Homo sapiens, KMS-12-BM, 96 h) is about 891 nM.
With `Cc1ccc(C#N)cc1Nc1nccc(-c2cc(C#N)c3c(c2)[C@@](C)(CO)CN3)n1` [Compound 1], the melting point was 222 °C. The IC50 in data set [1] worked out at 1.8 nM. Besides, in data set [2], the IC50 stood at 2.2 nM. In addition, the IC50 in data set [3] turned out to be 85 nM. Further, the IC50 in data set [4] amounted to 5190 nM.
Compound `C[C@]1(CO)CNc2c(C#N)cc(-c3ccnc(Nc4cc(C#N)ccc4OCCO)n3)cc21` [Compound 8] yielded a melting point of 184 °C. Moreover, the IC50 in data set [1] was 1.3 nM. Moreover, the IC50 in data set [2] (Homo sapiens, L-363, 2 h) was determined as 32.4 nM. In addition, in data set [3] (Homo sapiens, JJN-3, 96 h), the IC50 was determined as 87 nM. Further, the IC50 in data set [4] (Homo sapiens, KMS-12-BM, 96 h) is over 10000 nM.
In the case of `C[C@]1(CO)CNc2c(C#N)cc(-c3ccnc(Nc4cc(C#N)ccc4OCC4CC4)n3)cc21` [Compound 13], the melting point amounted to 194 °C. The IC50 in data set [1] was found to be 9.2 nM. Besides, the IC50 in data set [2] (Homo sapiens, L-363, 2 h) is 30.9 nM. For the same compound, the IC50 in data set [3] (Homo sapiens, JJN-3, 96 h) is 146 nM. Further, the IC50 in data set [4] (Homo sapiens, KMS-12-BM, 96 h) was over 10000 nM.
`CC1(COc2ccc(C#N)cc2Nc2nccc(-c3cc(C#N)c4c(c3)[C@@](C)(CO)CN4)n2)COC1` [Compound 14] registered a melting point of 162 °C. Besides, the IC50 in data set [1] came to 5.5 nM. Further, the IC50 in data set [2] (Homo sapiens, L-363, 2 h) came out at 21.4 nM. Also, the IC50 in data set [3] (Homo sapiens, JJN-3, 96 h) was determined as 170 nM. Also, the IC50 in data set [4] (Homo sapiens, KMS-12-BM, 96 h) is over 10000 nM.
On to `CCCCc1ccc(C#N)cc1Nc1nccc(-c2cc(C#N)c3c(c2)[C@@](C)(CO)CN3)n1` [Compound 15], for which the melting point turned out to be 110 °C. The IC50 in data set [1] worked out at 11 nM. Besides, the IC50 in data set [2] (Homo sapiens, L-363, 2 h) is about 269 nM. Moreover, in data set [3] (Homo sapiens, JJN-3, 96 h), the IC50 was 117 nM. Further, the IC50 in data set [4] (Homo sapiens, KMS-12-BM, 96 h) was over 10000 nM.
As to `CC(C)Oc1ccc(C#N)cc1Nc1nccc(-c2cc(C#N)c3c(c2)[C@@](C)(CO)CN3)n1` [Compound 16], the melting point came out at 162 °C. Further, the IC50 in data set [1] was determined as 15.5 nM. In addition, the IC50 in data set [2] (Homo sapiens, L-363, 2 h) was 15.5 nM. Also, the IC50 in data set [3] (Homo sapiens, JJN-3, 96 h) turned out to be 258 nM. In addition, in data set [4] (Homo sapiens, KMS-12-BM, 96 h), the IC50 turned out to be 550 nM.
For the compound `Cc1cc(S(C)(=O)=O)ccc1Nc1nccc(-c2cc(C#N)c3c(c2)[C@@](C)(CO)CN3)n1` [Compound 17], the melting point worked out at 148 °C. In addition, the IC50 in data set [1] was 1.1 nM. The IC50 in data set [2] (Homo sapiens, L-363, 2 h) amounted to 6.8 nM. In addition, the IC50 in data set [3] (Homo sapiens, JJN-3, 96 h) came out at 56 nM. The IC50 in data set [4] (Homo sapiens, KMS-12-BM, 96 h) came to 479 nM.
`CC(C)Oc1cc(P(C)(C)=O)ccc1Nc1nccc(-c2cc(C#N)c3c(c2)[C@@](C)(CO)CN3)n1` [Compound 18] displayed a melting point of 263 °C. For the same compound, the IC50 in data set [1] was 2.6 nM. Also, the IC50 in data set [2] (Homo sapiens, L-363, 2 h) stood at 20 nM. The IC50 in data set [3] (Homo sapiens, JJN-3, 96 h) amounted to 407 nM. For the same compound, in data set [4] (Homo sapiens, KMS-12-BM, 96 h), the IC50 was about 8130 nM.
The matching figures for `C[C@]1(CO)CNc2c(C#N)cc(-c3ccnc(Nc4cc(C#N)c(C5CCOCC5)cc4OCC4CC4)n3)cc21` [Compound 19]: 284 °C, 27.5 nM, 38.9 nM, 1950 nM and over 10000 nM.
As for `COCCOc1ccc(Cl)cc1Nc1nccc(-c2cc(C#N)c3c(c2)[C@@](C)(CO)CN3)n1` [Compound 45], the melting point came to 169 °C. For the same compound, in data set [1], the IC50 stood at 9.1 nM. Moreover, the IC50 in data set [2] (Homo sapiens, L-363, 2 h) came out at 37.2 nM. Moreover, the IC50 in data set [3] (Homo sapiens, JJN-3, 96 h) turned out to be 490 nM. Besides, the IC50 in data set [4] (Homo sapiens, KMS-12-BM, 96 h) was over 10000 nM.
In the case of `COc1cc(P(C)(C)=O)ccc1Nc1nccc(-c2cc(C#N)c3c(c2)[C@@](C)(CO)CN3)n1` [Compound 64], the melting point is 160 °C. Further, the IC50 in data set [1] amounted to 1.8 nM. In addition, in data set [2] (Homo sapiens, L-363, 2 h), the IC50 was found to be 18.2 nM. In addition, the IC50 in data set [3] (Homo sapiens, JJN-3, 96 h) was about 246 nM. Besides, in data set [4] (Homo sapiens, KMS-12-BM, 96 h), the IC50 worked out at 1230 nM.
Compound `Cc1ccc(C#N)cc1Nc1nccc(-c2cc(C#N)c3c(c2)[C@](C)(CO)CN3)n1` [Compound 65] returned a melting point of 218 °C. Besides, the IC50 in data set [1] amounted to 4.1 nM. Moreover, in data set [2] (Homo sapiens, L-363, 2 h), the IC50 came out at 103 nM. Moreover, the IC50 in data set [3] (Homo sapiens, JJN-3, 96 h) turned out to be 1100 nM. Besides, in data set [4] (Homo sapiens, KMS-12-BM, 96 h), the IC50 was over 10000 nM.
In turn, `COCCOc1ccc(C#N)cc1Nc1nccc(-c2cc(C#N)c3c(c2)[C@@](C)(CO)CN3)n1` [Compound 66] yielded a melting point of 165 °C. For the same compound, in data set [1], the IC50 amounted to 3 nM. In addition, the IC50 in data set [2] (Homo sapiens, L-363, 2 h) amounted to 5.9 nM. Moreover, in data set [3] (Homo sapiens, JJN-3, 96 h), the IC50 amounted to 251 nM. Further, the IC50 in data set [4] (Homo sapiens, KMS-12-BM, 96 h) came to 19 nM.
Compound `Cc1ccc(CN2CC(F)(F)C2)cc1Nc1nccc(-c2cc(C#N)c3c(c2)[C@@](C)(CO)CN3)n1` [Compound 219] registered a melting point of 181 °C. For the same compound, in data set [1], the IC50 was 15.5 nM. Further, the IC50 in data set [2] (Homo sapiens, L-363, 2 h) came to 5500 nM.
On to `Cc1ccc(CN2CCC(O)CC2)c(Nc2nccc(-c3cc(C#N)c4c(c3)[C@@](C)(CO)CN4)n2)c1` [Compound 221], for which the melting point amounted to 181 °C. Also, the IC50 in data set [1] was 32.4 nM. Besides, the IC50 in data set [2] (Homo sapiens, L-363, 2 h) was 646 nM.
On to `Cc1ccc(OC2CCN(C)CC2)c(Nc2nccc(-c3cc(C#N)c4c(c3)[C@@](C)(CO)CN4)n2)c1` [Compound 234], for which the melting point was 192 °C. Also, the IC50 in data set [1] worked out at 3.5 nM. In data set [2] (Homo sapiens, L-363, 2 h), the IC50 amounted to 5.9 nM. Moreover, the IC50 in data set [3] (Homo sapiens, JJN-3, 96 h) stood at 20 nM.
Regarding `CNCc1ccc(C)c(Nc2nccc(-c3cc(C#N)c4c(c3)[C@@](C)(CO)CN4)n2)c1` [Compound 239], the melting point was 116 °C. Moreover, in data set [1], the IC50 is 13.8 nM. In addition, in data set [2] (Homo sapiens, L-363, 2 h), the IC50 came to 355 nM.
